IC50, inhibition and Activity data for 46 compounds are collected here from ChEMBL document CHEMBL4311992, “Discovery of 3-(((9H-purin-6-yl)amino)methyl)-4,6-dimethylpyridin-2(1H)-one derivatives as novel tubulin polymerization inhibitors for treatment of cancer” (Eur J Med Chem, 2019).

By IC50 is commonly meant the concentration needed to halve the response being measured. In general, inhibition refers to the relative decrease from the control value, in per cent.

Calls of active or inactive are those of the source. The calls are words filed in the database; no cut-off is given here. Where only a bound is given, the exact number is not on record here.

The test system of one test is HCT-116. The experiment in a line: cells. The settings on record: Homo sapiens, HCT-116, 72 h.
A further test concerns HepG2. Kind of test: cells. The settings on record: Homo sapiens, HepG2, 72 h.
The next test relates to A549. The experiment in a line: cells. The settings on record: Homo sapiens, A549, 72 h.
The target of test [1] is Histone-lysine N-methyltransferase EZH2 (Homo sapiens) (UniProt Q15910). The experiment in a line: Inhibition of EZH2 (unknown origin) at 10 uM relative to control.
In another test the target is Tubulin (Sus scrofa) (UniProt P02554+P02550). Kind of test: Induction of porcine brain tubulin polymerization at 3 uM by fluorescence assay.
Sequence of Tubulin (Sus scrofa) (P02550 whole entry, looked up): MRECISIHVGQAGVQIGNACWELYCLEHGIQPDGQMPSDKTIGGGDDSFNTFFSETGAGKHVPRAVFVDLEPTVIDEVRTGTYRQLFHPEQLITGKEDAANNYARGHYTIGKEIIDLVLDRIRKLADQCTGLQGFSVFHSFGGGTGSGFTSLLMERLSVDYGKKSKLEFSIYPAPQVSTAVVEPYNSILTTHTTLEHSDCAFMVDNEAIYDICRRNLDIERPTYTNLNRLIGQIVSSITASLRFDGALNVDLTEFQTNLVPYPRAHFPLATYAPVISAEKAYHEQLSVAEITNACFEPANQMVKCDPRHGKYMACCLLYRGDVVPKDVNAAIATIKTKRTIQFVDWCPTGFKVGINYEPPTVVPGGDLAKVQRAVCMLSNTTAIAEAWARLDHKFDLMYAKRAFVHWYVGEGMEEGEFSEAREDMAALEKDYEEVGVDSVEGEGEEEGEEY
Sequence of Tubulin (Sus scrofa) (P02554 whole entry, looked up): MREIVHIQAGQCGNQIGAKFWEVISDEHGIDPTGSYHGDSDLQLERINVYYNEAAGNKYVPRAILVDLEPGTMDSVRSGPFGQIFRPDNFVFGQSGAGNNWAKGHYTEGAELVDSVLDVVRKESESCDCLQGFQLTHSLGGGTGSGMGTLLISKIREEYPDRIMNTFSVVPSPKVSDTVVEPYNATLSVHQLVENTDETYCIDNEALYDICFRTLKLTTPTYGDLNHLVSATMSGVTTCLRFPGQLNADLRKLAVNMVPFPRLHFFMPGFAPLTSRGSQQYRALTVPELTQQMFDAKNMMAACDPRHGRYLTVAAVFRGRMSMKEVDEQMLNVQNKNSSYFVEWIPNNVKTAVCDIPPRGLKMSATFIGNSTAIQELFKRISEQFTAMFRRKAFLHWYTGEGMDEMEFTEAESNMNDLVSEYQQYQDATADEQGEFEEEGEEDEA

Sequence of Histone-lysine N-methyltransferase EZH2 (Homo sapiens) (Q15910 whole entry, looked up): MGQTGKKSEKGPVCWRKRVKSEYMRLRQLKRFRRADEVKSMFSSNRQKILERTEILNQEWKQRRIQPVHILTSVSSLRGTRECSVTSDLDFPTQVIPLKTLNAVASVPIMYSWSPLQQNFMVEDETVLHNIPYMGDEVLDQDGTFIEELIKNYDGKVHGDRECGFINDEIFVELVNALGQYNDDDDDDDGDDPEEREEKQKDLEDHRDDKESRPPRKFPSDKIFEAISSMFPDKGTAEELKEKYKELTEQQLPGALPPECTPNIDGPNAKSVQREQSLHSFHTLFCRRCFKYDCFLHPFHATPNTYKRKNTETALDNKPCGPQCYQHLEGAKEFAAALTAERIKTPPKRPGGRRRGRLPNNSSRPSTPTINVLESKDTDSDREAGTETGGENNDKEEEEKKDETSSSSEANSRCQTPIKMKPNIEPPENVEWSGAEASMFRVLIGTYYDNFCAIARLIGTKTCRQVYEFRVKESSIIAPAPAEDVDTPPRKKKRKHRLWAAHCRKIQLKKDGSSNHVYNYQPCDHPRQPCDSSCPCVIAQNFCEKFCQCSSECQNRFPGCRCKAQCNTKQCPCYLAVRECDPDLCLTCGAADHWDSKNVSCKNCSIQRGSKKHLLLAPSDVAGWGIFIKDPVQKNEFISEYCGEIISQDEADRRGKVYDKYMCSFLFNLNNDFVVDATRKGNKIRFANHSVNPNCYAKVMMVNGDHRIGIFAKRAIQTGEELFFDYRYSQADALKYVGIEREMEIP
Description for A549: Antiproliferative activity against human A549 cells after 72 hrs by MTT assay
Description for HCT-116: Antiproliferative activity against human HCT116 cells after 72 hrs by MTT assay

Take `Cc1cc(C)c(CNc2nc(-c3ccc(OC(F)(F)F)cc3)nc3c2ncn3C(C)C)c(=O)[nH]1`: the IC50 was found to be 0.55 µM in the test on HCT-116, 2.47 µM with HepG2 and 9.31 µM in the test with A549.
For `CCC(CC)n1cnc2c(NCc3c(C)cc(C)[nH]c3=O)nc(-c3ccc(N4CCN(C(=O)OC(C)(C)C)CC4)nc3)nc21`, the results for the IC50 in the test on HCT-116, with HepG2 and in the test with A549 were 0.88 µM, 0.52 µM and 8.21 µM, respectively.
The matching figures for `Cc1cc(C)c(CNc2nc(-c3cccc(N4CCOCC4)c3)nc3c2ncn3C2CCCCO2)c(=O)[nH]1` (stereo not drawn): 8.27 µM, 6.67 µM and over 10 µM.
On to `Cc1cc(C)c(CNc2nc(-c3ccc(N4CCOCC4)cc3)nc3c2ncn3C2CCCC2)c(=O)[nH]1`, for which the results for the half-maximal inhibitory concentration (IC50) in the test on HCT-116, in the test with HepG2 and in the test on A549 were 0.52 µM, 0.98 µM and over 10 µM, respectively.
Take `Cc1cc(C)c(CNc2nc(-c3ccc(N4CCOCC4)cc3)nc3c2ncn3C2CCCCO2)c(=O)[nH]1` (stereo not drawn): the IC50 in the test with HCT-116, with HepG2 and with A549 was over 10 µM in each case.
`CCC(CC)n1cnc2c(NCc3c(C)cc(C)[nH]c3=O)nc(-c3ccc(N4CCN(C)CC4)cc3)nc21`: the IC50 with HCT-116 was over 10 µM; in the test with HepG2 it was 1.99 µM; in the test with A549, 5.09 µM.
On to `CCC(CC)n1cnc2c(NCc3c(C)cc(C)[nH]c3=O)nc(-c3cccc(N4CCOCC4)c3)nc21`, for which the IC50 in the test on HCT-116 is over 10 µM; in the test with HepG2, 2.22 µM; with A549, over 10 µM.
For `Cc1cc(C)c(CNc2nc(-c3ccc(N4CCN(C)CC4)nc3)nc3c2ncn3C(C)C)c(=O)[nH]1`, the results for the IC50 with HCT-116, in the test on HepG2 and in the test with A549 were 8.99 µM, over 10 µM and over 10 µM, respectively.
Turning to `Cc1cc(C)c(CNc2nc(-c3ccc(N4CCN(C)CC4)nc3)nc3c2ncn3C2CCCCO2)c(=O)[nH]1` (stereo not drawn), the results for the IC50 in the test on HCT-116, in the test with HepG2 and in the test with A549 were 9.05 µM, over 10 µM and over 10 µM, respectively.
Take `Cc1cc(C)c(CNc2nc(-c3ccc(CN4CCOCC4)cc3)nc3c2ncn3C2CCCCO2)c(=O)[nH]1` (stereo not drawn): the IC50 with HCT-116, with HepG2 and with A549 was over 10 µM throughout.
On to `Cc1cc(C)c(CNc2nc(-c3cccc(N4CCOCC4)c3)nc3c2ncn3C(C)C)c(=O)[nH]1`, for which the IC50 in the test with HCT-116 was 7.42 µM; in the test with HepG2 it was over 10 µM; with A549, over 10 µM.
With `CCC(CC)n1cnc2c(NCc3c(C)cc(C)[nH]c3=O)nc(-c3ccc(N4CCNCC4)nc3)nc21`, the IC50 worked out at 3.94 µM in the test on HCT-116, 5.72 µM in the test with HepG2 and 6.13 µM in the test on A549.
For `Cc1cc(C)c(CNc2nc(-c3ccc(N4CCOCC4)cc3)nc3[nH]cnc23)c(=O)[nH]1`, the IC50 with HCT-116 is 5.66 µM; in the test on HepG2 it was 4.74 µM; in the test on A549, over 10 µM.
Turning to `Cc1cc(C)c(CNc2nc(-c3cccc(N4CCOCC4)c3)nc3[nH]cnc23)c(=O)[nH]1`, the values for the IC50 in the test on HCT-116, in the test with HepG2 and in the test on A549 were 6.84 µM, 5.19 µM and over 10 µM, respectively.
Consider `Cc1cc(C)c(CNc2nc(-c3ccc(N4CCN(C)CC4)cc3)nc3c2ncn3C(C)C)c(=O)[nH]1`, for which the IC50 is 7.93 µM in the test on HCT-116, 5.81 µM with HepG2 and 4.72 µM with A549.
With `Cc1cc(C)c(CNc2nc(-c3ccc(N4CCN(C)CC4)nc3)nc3[nH]cnc23)c(=O)[nH]1`, the IC50 in the test with HCT-116, with HepG2 and in the test with A549 was over 10 µM in each case.
As to `Cc1cc(C)c(CNc2nc(-c3ccc(N4CCNCC4)nc3)nc3c2ncn3C(C)C)c(=O)[nH]1`, the IC50 in the test on HCT-116 is 1.19 µM; in the test with HepG2, 2.88 µM; in the test with A549 it was over 10 µM. Further, the inhibition in test [1] was -4%.
In the case of `CC(=O)O[C@H]1C(=O)[C@@]2(C)[C@H]([C@H](OC(=O)c3ccccc3)[C@]3(O)C[C@H](OC(=O)[C@H](O)[C@@H](NC(=O)c4ccccc4)c4ccccc4)C(C)=C1C3(C)C)[C@]1(OC(C)=O)CO[C@@H]1C[C@@H]2O`, the result on Tubulin (Sus scrofa) was Active.
`Cc1cc(C)c(CNc2nc(-c3ccc(N4CCN(C(=O)OC(C)(C)C)CC4)nc3)nc3c2ncn3C2CCCC2)c(=O)[nH]1`: the half-inhibitory concentration (IC50) in the test on HCT-116 is 1.01 µM; in the test on HepG2 it was 1.62 µM; with A549 it was over 10 µM.
The matching figures for `Cc1cc(C)c(CNc2nc(-c3ccc(N4CCN(C)CC4)nc3)nc3c2ncn3C2CCCC2)c(=O)[nH]1`: over 10 µM, 7.63 µM and 5.17 µM.
In the same order, the values of `Cc1cc(C)c(CNc2nc(-c3ccc(N4CCNCC4)nc3)nc3[nH]cnc23)c(=O)[nH]1` are 2.65 µM, 6.02 µM and over 10 µM.
In the case of `Cc1cc(C)c(CNc2nc(-c3ccc(N4CCN(C)CC4)cc3)nc3[nH]cnc23)c(=O)[nH]1`, the IC50 in the test on HCT-116 was over 10 µM; in the test with HepG2 it was 9.83 µM; in the test with A549, over 10 µM.
Regarding `Cc1cc(C)c(CNc2nc(-c3ccc(OC(F)(F)F)cc3)nc3c2ncn3C2CCCC2)c(=O)[nH]1`, the IC50 is 7.55 µM in the test on HCT-116, 6.21 µM in the test on HepG2 and over 10 µM with A549.
As to `Cc1cc(C)c(CNc2nc(-c3ccccc3F)nc3c2ncn3C2CCCCO2)c(=O)[nH]1` (stereo not drawn), the concentration for half-maximal inhibition (IC50) with HCT-116, in the test on HepG2 and in the test on A549 was over 10 µM throughout.
Turning to `Cc1cc(C)c(CNc2nc(-c3ccc(N4CCN(C)CC4)cc3)nc3c2ncn3C2CCCCO2)c(=O)[nH]1` (stereo not drawn), the IC50 with HCT-116, with HepG2 and in the test with A549 was over 10 µM throughout.
Consider `Cc1cc(C)c(CNc2nc(-c3ccc(N4CCNCC4)nc3)nc3c2ncn3C2CCCC2)c(=O)[nH]1`, for which the results for the IC50 in the test on HCT-116, in the test on HepG2 and in the test on A549 were 0.85 µM, 1.71 µM and over 10 µM, respectively.
In the same order, the values of `Cc1cc(C)c(CNc2nc(-c3ccc(N4CCOCC4)cc3)nc3c2ncn3C(C)C)c(=O)[nH]1` are 1.03 µM, 1.11 µM and 4.3 µM.
Consider `Cc1cc(C)c(CNc2nc(-c3ccc(OC(F)(F)F)cc3)nc3[nH]cnc23)c(=O)[nH]1`, for which the IC50 was 1.08 µM with HCT-116, 1.29 µM in the test on HepG2 and over 10 µM in the test on A549.
Regarding `CCC(CC)n1cnc2c(NCc3c(C)cc(C)[nH]c3=O)nc(-c3ccc(OC(F)(F)F)cc3)nc21`, the IC50 in the test on HCT-116 stood at 0.78 µM; with HepG2, 1.42 µM; in the test with A549 it was 5.38 µM.
For the compound `Cc1cc(C)c(CNc2nc(Cl)nc3c2ncn3C2CCCCO2)c(=O)[nH]1` (stereo not drawn), the values for the IC50 in the test with HCT-116, with HepG2 and in the test with A549 were 2.71 µM, 0.41 µM and 1.93 µM, respectively.
For the compound `COc1ccc(CNc2nc(NCc3ccc(OC)cc3)c3ncn(C(C)C)c3n2)cc1` [MYOSEVERIN], the values for the IC50 in the test with HCT-116, in the test with HepG2 and in the test on A549 were 7.82 µM, 3.06 µM and over 10 µM, respectively.
`Cc1cc(C)c(CNc2nc(-c3ccccc3F)nc3[nH]cnc23)c(=O)[nH]1`: the IC50 with HCT-116 was 6.91 µM; in the test on HepG2 it was 6.89 µM; in the test on A549 it was over 10 µM.
For the compound `Cc1cc(C)c(CNc2nc(-c3ccc(CN4CCOCC4)cc3)nc3c2ncn3C2CCCC2)c(=O)[nH]1`, the values for the IC50 with HCT-116, in the test on HepG2 and with A549 were 2.46 µM, 1.93 µM and over 10 µM, respectively.
On to `CCC(CC)n1cnc2c(NCc3c(C)cc(C)[nH]c3=O)nc(-c3ccc(CN4CCOCC4)cc3)nc21`, for which the values for the IC50 with HCT-116, with HepG2 and with A549 were 2.99 µM, 1.82 µM and 6.13 µM, respectively.
With `CCC(CC)n1cnc2c(NCc3c(C)cc(C)[nH]c3=O)nc(Cl)nc21`, the figures for the IC50 with HCT-116, in the test on HepG2 and in the test with A549 were 1.33 µM, 0.2 µM and 1.51 µM, respectively. For the same compound, in test [1], the inhibition came to 0.5%.
As for `Cc1cc(C)c(CNc2nc(-c3ccc(CN4CCOCC4)cc3)nc3c2ncn3C(C)C)c(=O)[nH]1`, the IC50 with HCT-116 is 8.01 µM; with HepG2 it was 0.93 µM; in the test on A549, over 10 µM.
For `Cc1cc(C)c(CNc2nc(-c3ccc(CN4CCOCC4)cc3)nc3[nH]cnc23)c(=O)[nH]1`, the IC50 in the test with HCT-116, with HepG2 and in the test with A549 was over 10 µM in each case.
Take `CCC(CC)n1cnc2c(NCc3c(C)cc(C)[nH]c3=O)nc(-c3ccc(N4CCN(C)CC4)nc3)nc21`: the 50% inhibitory concentration (IC50) was 0.65 µM in the test with HCT-116, 0.82 µM in the test with HepG2 and over 10 µM with A549.
On to `Cc1cc(C)c(CNc2nc(-c3ccc(OC(F)(F)F)cc3)nc3c2ncn3C2CCCCO2)c(=O)[nH]1` (stereo not drawn), for which the IC50 worked out at 5.83 µM with HCT-116, 5.22 µM in the test with HepG2 and 9.46 µM with A549.
As to `Cc1cc(C)c(CNc2nc(-c3ccc(N4CCN(C)CC4)cc3)nc3c2ncn3C2CCCC2)c(=O)[nH]1`, the IC50 in the test on HCT-116 turned out to be 1.37 µM; in the test with HepG2, 2.59 µM; in the test on A549, 6.21 µM.
With `Cc1cc(C)c(CNc2ncnc3c2ncn3C2CCCC2)c(=O)[nH]1`, the IC50 in the test on HCT-116 was 1.05 µM; in the test with A549, over 10 µM.
`Cc1cc(C)c(CNc2nc(-c3ccc(N4CCN(C(=O)OC(C)(C)C)CC4)nc3)nc3c2ncn3C2CCCCO2)c(=O)[nH]1` (stereo not drawn): the IC50 is 9.07 µM in the test on HCT-116, over 10 µM in the test with HepG2 and over 10 µM in the test with A549.
With `Cc1cc(C)c(CNc2nc(Cl)nc3c2ncn3C(C)C)c(=O)[nH]1`, the IC50 with HCT-116 was 1.86 µM; with HepG2, 0.15 µM; in the test with A549 it was 1.13 µM.
The matching figures for `Cc1cc(C)c(CNc2nc(-c3ccc(N4CCN(C(=O)OC(C)(C)C)CC4)nc3)nc3c2ncn3C(C)C)c(=O)[nH]1`: 4.14 µM, over 10 µM and 0.49 µM.
For the compound `CCC(CC)n1cnc2c(NCc3c(C)cc(C)[nH]c3=O)nc(-c3ccc(N4CCOCC4)cc3)nc21`, the IC50 was over 10 µM with HCT-116, 1.54 µM in the test with HepG2 and 5.9 µM with A549. Also, the inhibition in test [1] is -3%.
On to `Cc1cc(C)c(CNc2nc(-c3cccc(N4CCOCC4)c3)nc3c2ncn3C2CCCC2)c(=O)[nH]1`, for which the IC50 with HCT-116 turned out to be 5.32 µM; with HepG2, 0.89 µM; with A549 it was 2.65 µM.
